Measurements as given in ChEMBL document CHEMBL4382231, “Chemical preparation, biological evaluation and 3D-QSAR of ethoxysulfuron derivatives as novel antifungal agents targeting acetohydroxyacid synthase” (Eur J Med Chem, 2019).

What was measured:
[1] = test system: Candida albicans; experiment: Antifungal activity against Candida albicans SC5314 cultured in RPMI 1640 media after 24 hrs by broth microdilution method; format: functional; settings: SC5314, 24 h
[2] = Inhibition of Candida albicans AHAS catalytic subunit using pyruvate as substrate measured after 30 mins by colorimetric method
[3] = test system: Candida albicans; experiment: Antifungal activity against Candida albicans SC5314 cultured in YNB media after 24 hrs by broth microdilution method; format: functional; settings: SC5314, 24 h

| Compound | MIC [1] [µg/mL] | Ki [2] [nM] | pKi [2] | MIC [3] [µg/mL] |
| --- | --- | --- | --- | --- |
| CCCOC(=O)c1ccccc1OS(=O)(=O)[N-]C(=O)Nc1nc(Cl)cc(OC)n1.[Na+] | > 100 | 235 | 6.62 | > 100 |
| CCOC(=O)c1cccc(OS(=O)(=O)[N-]C(=O)Nc2nc(C)cc(Cl)n2)c1.[Na+] | > 100 | > 50000 |  | > 100 |
| COc1cc(OC)nc(NC(=O)[N-]S(=O)(=O)Oc2ccccc2C(=O)Oc2ccccc2)n1.[Na+] | > 100 | 5860 | 5.23 | > 100 |
| Cc1cc(Cl)nc(NC(=O)[N-]S(=O)(=O)Oc2ccccc2C(=O)OC(C)C)n1.[Na+] | > 100 | 22900 | 4.64 | > 100 |
| CCOC(=O)c1ccccc1OS(=O)(=O)[N-]C(=O)Nc1nc(Br)cc(OC)n1.[Na+] | > 100 | 10.8 | 7.96 | > 100 |
| COC(=O)c1ccccc1OS(=O)(=O)[N-]C(=O)Nc1nc(Br)cc(OC)n1.[Na+] | > 100 | 643 | 6.28 | > 100 |
| COc1cc(Cl)nc(NC(=O)[N-]S(=O)(=O)Oc2ccccc2C(=O)OC(C)C)n1.[Na+] | > 100 | 4560 | 5.46 | > 100 |
| COC(=O)c1ccccc1OS(=O)(=O)[N-]C(=O)Nc1nc(Cl)cc(OC)n1.[Na+] | > 100 | 55 | 7.26 | > 100 |
| COc1cc(C)nc(NC(=O)[N-]S(=O)(=O)Oc2ccccc2C(=O)OCCI)n1.[Na+] | > 100 | 610 | 6.21 | > 100 |
| COc1cc(C)nc(NC(=O)[N-]S(=O)(=O)Oc2ccccc2C(=O)OCC(F)(F)F)n1.[Na+] | > 100 | 310 | 6.51 | 20 |
| Cc1cc(C)nc(NC(=O)[N-]S(=O)(=O)Oc2ccccc2OCCI)n1.[Na+] | > 100 | 3570 | 5.45 | > 100 |
| Cc1cc(C)nc(NC(=O)[N-]S(=O)(=O)Oc2ccccc2C(=O)OCCI)n1.[Na+] | > 100 | 15000 | 4.82 | > 100 |
| Cc1cc(C)nc(NC(=O)[N-]S(=O)(=O)Oc2ccccc2C(=O)OCCCl)n1.[Na+] | > 100 | 3360 | 5.48 | > 100 |
| Cc1cc(Cl)nc(NC(=O)[N-]S(=O)(=O)Oc2ccccc2C(=O)OCCCl)n1.[Na+] | > 100 | 761 | 6.09 | > 100 |
| CCOC(=O)c1ccc(OS(=O)(=O)[N-]C(=O)Nc2nc(C)cc(Cl)n2)cc1.[Na+] | > 100 | > 50000 |  | > 100 |
| COc1cc(Br)nc(NC(=O)[N-]S(=O)(=O)Oc2ccccc2C(=O)OC(C)C)n1.[Na+] | > 100 | 1510 | 5.82 | > 100 |
| COc1cc(I)nc(NC(=O)[N-]S(=O)(=O)Oc2ccccc2C(=O)OCCCl)n1.[Na+] | > 100 | 740 | 6.13 | > 100 |
| CCOC(=O)c1ccccc1OS(=O)(=O)[N-]C(=O)Nc1nc(C)cc(C)n1.[Na+] | > 100 | 750 | 6.13 | > 100 |
| CCCOC(=O)c1ccccc1OS(=O)(=O)[N-]C(=O)Nc1nc(OC)cc(OC)n1.[Na+] | > 100 | 260 | 6.59 | > 100 |
| Cc1cc(C)nc(NC(=O)[N-]S(=O)(=O)Oc2ccc([N+](=O)[O-])cc2)n1.[Na+] | > 100 | 5660 | 5.24 | > 100 |

| Compound | MIC [1] [µg/mL] | Ki [2] [nM] | pKi [2] | MIC [3] [µg/mL] |
| --- | --- | --- | --- | --- |
| COc1cc(Br)nc(NC(=O)[N-]S(=O)(=O)Oc2ccccc2OCCCl)n1.[Na+] | > 100 | 69 | 7.13 | > 100 |
| COc1cc(OC)nc(NC(=O)[N-]S(=O)(=O)Oc2ccccc2C(=O)OC(C)C)n1.[Na+] | > 100 | 405 | 6.4 | 20 |
| COc1cc(OC)nc(NC(=O)[N-]S(=O)(=O)Oc2ccccc2C(=O)OCCI)n1.[Na+] | > 100 | 95 | 7.02 | > 100 |
| Cc1cc(Cl)nc(NC(=O)[N-]S(=O)(=O)Oc2ccccc2C(=O)Oc2ccccc2)n1.[Na+] | > 100 | > 50000 |  | > 100 |
| Cc1cc(Cl)nc(NC(=O)[N-]S(=O)(=O)Oc2ccccc2C(=O)OCCI)n1.[Na+] | > 100 | 2330 | 5.64 | > 100 |
| COc1cc(Cl)nc(NC(=O)[N-]S(=O)(=O)Oc2ccccc2[N+](=O)[O-])n1.[Na+] | > 100 | 265 | 6.58 | > 100 |
| Cc1cc(Cl)nc(NC(=O)[N-]S(=O)(=O)Oc2ccccc2OCCI)n1.[Na+] | > 100 | 885 | 6.05 | > 100 |
| COC(=O)c1ccccc1OS(=O)(=O)[N-]C(=O)Nc1nc(C)cc(Cl)n1.[Na+] | > 100 | 85.5 | 7.06 | > 100 |
| COc1cc(C)nc(NC(=O)[N-]S(=O)(=O)Oc2ccccc2C(=O)OC(C)C)n1.[Na+] | > 100 | 268 |  | 80 |
| CCOC(=O)c1ccccc1OS(=O)(=O)[N-]C(=O)Nc1nc(I)cc(OC)n1.[Na+] | 100 | 11.5 | 7.91 | 10 |
| CCOC(=O)c1ccc(OS(=O)(=O)[N-]C(=O)Nc2nc(OC)cc(OC)n2)cc1.[Na+] | > 100 | > 50000 |  | > 100 |
| CCCOC(=O)c1ccccc1OS(=O)(=O)[N-]C(=O)Nc1nc(C)cc(C)n1.[Na+] | > 100 | 2690 | 5.57 | > 100 |
| CCOC(=O)c1cccc(OS(=O)(=O)[N-]C(=O)Nc2nc(C)cc(C)n2)c1.[Na+] | > 100 | 36800 | 4.44 | > 100 |
| COc1cc(Br)nc(NC(=O)[N-]S(=O)(=O)Oc2ccccc2C(=O)OCCCl)n1.[Na+] | > 100 | 379 | 6.41 | > 100 |
| COc1cc(Cl)nc(NC(=O)[N-]S(=O)(=O)Oc2ccccc2C(=O)OCC(F)(F)F)n1.[Na+] | > 100 | 265 | 6.57 | > 100 |
| CCCOC(=O)c1ccccc1OS(=O)(=O)[N-]C(=O)Nc1nc(C)cc(Cl)n1.[Na+] | > 100 | 35500 |  | > 100 |
| COc1cc(Cl)nc(NC(=O)[N-]S(=O)(=O)Oc2ccccc2C(=O)OCCI)n1.[Na+] | > 100 | 547 | 6.26 | > 100 |
| Cc1cc(C)nc(NC(=O)[N-]S(=O)(=O)Oc2ccccc2C(=O)Oc2ccccc2)n1.[Na+] | > 100 | 25700 | 4.6 | > 100 |
| COc1cc(Br)nc(NC(=O)[N-]S(=O)(=O)Oc2ccccc2OCCI)n1.[Na+] | > 100 | 478 | 6.33 | > 100 |
| COc1cc(C)nc(NC(=O)[N-]S(=O)(=O)Oc2ccc([N+](=O)[O-])cc2)n1.[Na+] | > 100 | > 50000 |  | > 100 |
